Values quoted from earlier work in EP2839829B1 (Korea United Pharm. Inc., priority 2012, dated 2013).

Details: in the body

In the case of OC[C@@H](O)CN1CCN(c2ccccc2)CC1 [levodropropizine], the half life is given as “about 1 hr”.
